Values of other authors, collected in patent US20190203207A1, “Anabolic Enhancers for Ameliorating Neurodegeneration” (priority 2016, published 2019).
Entries after “also recorded” stand apart in the source; their conditions may differ.

System: insulin/mTOR signaling pathway

Substance: insulin
- GLUT1 and HIF1a levels (insulin injection, four RP mouse models): increased levels
- Cone survival / cone degeneration (systemic insulin, four RP mouse models (Punzo et al.)): encouraged cone survival; also recorded: delay degeneration of cones
